Experimental data reported in patent EP2545917B1, “NOVEL EP4 AGONIST” (Kaken Pharmaceutical Co., Ltd., priority 2010, dated 2011).

Tests used:
IP-10 = assay: Suppressive effect on cytokine production, whole blood stimulated with lipopolysaccharide, ELISA; type: cell-based; details: human whole blood, indometacin, 48 hr, geometric mean of three volunteers
Human IP = biological target: T1, Human IP (Homo sapiens, UniProt P43119); assay: Receptor affinity, tritium-labeled iloprost binding to membranes of transfected COS-7 cells; details: COS-7 cell membranes
T1 construct: expressed in transfected cells; host or cells: COS-7
Experimental: PG receptor affinity of compound F and compound J of the present invention was evaluated. Compound F used was one synthesized in Example 9, and compound J was prepared by separating and purifying the compound synthesized in Example 14 with a column (the same preparations were used in the following Examples). COS-7 cells were transfected with the genes of mouse EP4, human EP1-4 or human IP to overexpress the receptor and then the cell membranes were collected. As a labeled ligand, tritium-labeled PGE2 was used for EPs; tritium-labeled iloprost, for IP. The dissociation constant Kd value was obtained and inhibition constant Ki value of each test compound was determined in a conventional method. As a reference control, PGE2 was used for EPs; beraprost sodium (BPS), for IP.

[1] = Plasma pharmacokinetics after intravenous administration to rats; type: in vivo; details: male, rat
Experimental: To verify the in vivo metabolic stability of the compound of the present invention, plasma pharmacokinetics was evaluated after intravenous administration to rats. Male rats (6 weeks old, body weight 160 - 180 g) were acclimated for 1 week, and the animals diagnosed healthy were used. A mixture of compound F and compound J of the present invention described in Table 1 (F:J = 52:41), and a mixture of carboxylate forms of compound F and compound J (F:J = 54:34), and compound F (synthesized in Example 9) were dissolved in a small amount of ethanol and physiological saline was added to prepare test compound solutions. The test compound solutions were instantaneously administered intravenously at 1 mL/kg from the femoral vein of non-fasting rats under light ether anesthesia. Venous blood was drawn from the tail vein 5, 15, 30, 45, 60, 90 and 120 min after administration. The blood was mixed with heparin and centrifuged (3000 rpm, 4°C, 15 min) to obtain plasma. The plasma compound concentration was determined by the internal standard method using LC-MS/MS. The determination range by this method was from 0.1 to 100 ng/mL. The compound concentrations obtained from each rat were analyzed in a model-independent way using a pharmacokinetics analysis software WinNonlin (ver.3.3), and average ± standard deviation of 3 animals for each group was obtained.

Human EP4 = biological target: T2, Human EP4 (Homo sapiens, UniProt P35408); assay: EP4 agonist activity, CRE-LUC reporter gene in transfected COS-7 cells; type: cell-based
T2 construct: expressed in transfected cells; host or cells: COS-7
Experimental: In brief, human EP4 gene and CRE-LUC reporter gene were transfected into COS-7 cells. The cells were treated with a test compound one day later, and incubated for 3 hr. The cells were washed, a luminescence substrate was added, and the luminescence intensity was measured for the agonist activity.

[2] = tested on: dextran sodium sulfate-induced colitis; assay: Therapeutic effect on remission/relapse model of dextran sodium sulfate-induced colitis in mice; type: in vivo, BALB/c mice
Text: Next, therapeutic effect of compound F on colitis was studied in a chronic model. Female BALB/c mice, 6 weeks old, body weight about 20 g (Japan SLC) were purchased, acclimated for 1 week and used for the study. The mice were divided into a colitis induction group and a normal group. The colitis induction group was allowed to freely drink a 2.6 w/v% DSS (MP Biochemicals, M.W. 36,000- 50,000, Lot No. 4556J) solution to induce colitis. On day 8 when the stool score (defined in Example 23) of the colitis induction group reached about 4.5, the mice were subdivided into a control group, a compound F 1 mg/kg administration group and a salazosulfapyridine (SIGMA, Lot No. 085K1930, hereinafter to be abbreviated as SASP) 100 mg/kg administration group. Then the mice were allowed to freely drink distilled water instead of DSS solution for 9 days (remission period). After the grouping, the stool score was evaluated every 3 - 4 days. When the score of the control group reached about 1, the mice were again allowed to drink the DSS solution to cause a relapse (relapse period). The periods of remission and relapse were taken as 1 cycle and the cycle was repeated 5 times. As for the 5th cycle, however, only the remission period was performed.
Compound F at a dose of 1 mg/kg and SASP at a dose of 100 mg/kg were orally administered once a day, daily, for 50 days from the initial remission period (day 8 from the start of 2.6 w/v% DSS drinking) to the fifth remission period (day 57 from the start of 2.6 w/v% DSS drinking). To the control group was orally administered a solvent (1 vol% ethanol solution) at 10 mL/kg. If a mouse had score 0 of both stool consistency score and occult blood score on the last day of each remission period, the mouse was regarded as "in remission". The remission ratio (%) was calculated as a ratio of mice in remission in each group. Eight to 10 mice were used for each group and the results are shown in average value.

[3] = tested on: Human Platelet Aggregation; assay: Inhibitory effect on ADP-induced platelet aggregation in platelet-rich plasma; type: cell-based; details: ADP 10 µmol/L, geometric mean of three volunteers
Experimental: The inhibitory effect of compounds F and J, and carboxylate forms thereof on platelet aggregation was evaluated. The carboxylate forms were prepared by separating and purifying the compound synthesized in Example 15 with a column. Blood was drawn from 3 healthy volunteers using sodium citrate as an anticoagulant, and platelet-rich plasma was prepared. The platelet-rich plasma was treated with physiological saline or test compounds and, 2 min later, platelet aggregation was induced with adenosine diphosphate (ADP, final concentration 10 µmol/L) and recorded with a platelet aggregation measurement apparatus (nephelometry).

[4] = tested on: CD4+CD25- T cell transfer colitis; assay: Prophylactic effect on CD4+CD25- T cell transfer colitis model in mice; type: in vivo, C.B-17/Icr-scid mice; details: scid mice, oral 1 mg/kg once a day for 20 days
Experimental: Female BALB/cA Jcl mice, 6 weeks old, body weight 19 - 23 g (CLEA Japan, Inc.) and female C.B-17/Icr-scid mice (6 weeks old, CLEA Japan, Inc.) were purchased, acclimated for 1 week and used for the study. After laparotomy under ether anesthesia, BALB/cA Jcl mice were exsanguinated to death through the abdominal aorta and caudal vena cava, and the spleen was isolated. Splenocytes were prepared from the spleen and then CD4^+CD25^- T cells were prepared with a CD4^+ T cell Isolation Kit (No. 130-090-860, Milky Biotech Co., Ltd.) and CD25-Biotin antibody (No. 130-092-569, Milky Biotech Co., Ltd.). The cells were separated using the autoMACS Separator (Milky Biotech Co., Ltd.). The separated CD4^+CD25^- T cells were suspended in physiological phosphate buffer solution, and 2.5×10^5 cells per animal were intraperitoneally administered to C.B-17/Icr-scid mice to induce colitis. […] To the control group was orally administered a solvent (1 vol% ethanol solution) at 10 mL/kg. […] The fecal occult blood score was evaluated in the same manner as in Example 23. […] Eight to 10 mice were used for each group and the results were expressed as average.

[5] = mice, oral once a day, Compound F 1 mg/kg, SASP 100 mg/kg

T1 sequence (P43119 whole entry): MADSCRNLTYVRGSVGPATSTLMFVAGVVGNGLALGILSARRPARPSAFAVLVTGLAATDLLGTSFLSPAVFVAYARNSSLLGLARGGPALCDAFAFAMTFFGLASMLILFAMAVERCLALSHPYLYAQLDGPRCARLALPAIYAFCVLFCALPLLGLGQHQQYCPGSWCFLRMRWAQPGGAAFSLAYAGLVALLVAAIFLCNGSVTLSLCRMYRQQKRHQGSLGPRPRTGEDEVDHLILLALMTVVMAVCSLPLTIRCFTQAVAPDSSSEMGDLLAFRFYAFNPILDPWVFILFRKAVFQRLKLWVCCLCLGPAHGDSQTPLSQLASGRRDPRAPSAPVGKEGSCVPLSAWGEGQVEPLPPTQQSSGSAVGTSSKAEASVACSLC
T2 sequence (P35408 whole entry): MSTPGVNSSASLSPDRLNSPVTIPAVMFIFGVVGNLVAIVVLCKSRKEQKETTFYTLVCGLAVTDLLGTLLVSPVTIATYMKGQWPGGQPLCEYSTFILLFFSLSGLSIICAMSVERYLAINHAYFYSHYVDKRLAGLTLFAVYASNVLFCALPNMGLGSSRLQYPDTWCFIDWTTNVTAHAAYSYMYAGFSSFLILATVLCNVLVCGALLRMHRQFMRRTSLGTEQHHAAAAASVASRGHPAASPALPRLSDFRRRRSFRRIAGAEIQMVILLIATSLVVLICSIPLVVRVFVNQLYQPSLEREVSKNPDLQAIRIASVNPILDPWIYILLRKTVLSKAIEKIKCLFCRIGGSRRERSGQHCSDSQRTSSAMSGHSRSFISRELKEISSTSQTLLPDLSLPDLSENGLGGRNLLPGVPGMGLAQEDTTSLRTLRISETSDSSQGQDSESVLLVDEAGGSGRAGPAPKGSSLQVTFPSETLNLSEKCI

IC50 (IP-10): 1.14 nM
Ki (Human IP): 670 nM
half-life ([1]; iv, 50 ug/kg): 1.92 ± 0.517 h
half-life ([1]; iv, 300 ug/kg): 2.63 ± 0.25 h
half-life ([1]; rats, intravenous, summary of Table 3): 1 to 2 h
EC50 (Human EP4): 3.33 nM
IC50 [3]: 917 nM
Compound: Cc1cccc([C@@H](C)[C@H](O)/C=C/[C@@H]2[C@@H]3[C@H](C[C@H]2O)O/C(=C\CCCc2nnn[nH]2)C3(F)F)c1 [Compound F, 4-[(Z)-(1S,5R,6R,7R)-6-[(1E,3R,4R)-3-hydroxy-4-(m-tolyl)-1-pentenyl]-7-hydroxy-2-oxa-4,4-difluoro-bicyclo[3.3.0]octan-3-ylidene]-1-(tetrazol-5-yl)butane]
Remission Ratio Average ([2]; average of 5 remission periods, Compound F 1 mg/kg, SASP 100 mg/kg): 66.0%
remission ratio in any remission period ([2]; mice, oral 1 mg/kg once a day): not less than 60%
effect on stool score in remission and relapse periods ([2]; mice, oral once a day for 50 days, compound F 1 mg/kg, SASP 100 mg/kg): decreased the stool score early in the remission period, and suppressed an increase in the score in the relapse period
Remission Ratio Cycle 1 [2, 5]: 60.0%
Remission Ratio Cycle 2 [2, 5]: 80.0%
Remission Ratio Cycle 3 [2, 5]: 70.0%
Remission Ratio Cycle 4 [2, 5]: 60.0%
Remission Ratio Cycle 5 [2, 5]: 60.0%
DAI score [4]: comprehensively superior to prednisolone
effect on body weight decrease score [4]: prevented the increase in the body weight decrease score almost completely
